# Test results taken from patent US20240288446A1, “METHOD FOR DIAGNOSING FIBRINOLYTIC INSUFFICIENCY RELATED TO NEUTROPHIL EXTRACELLULAR TRAPS” (Hôpitaux Universitaires de Strasbourg, priority 2019, published 2024).
# “Also recorded” adds a separate entry of the source.
# Key:
# Type in all cases: biochemical
# [1] = molecular target: T1, HNE-DNA complexes of NETs (Homo sapiens, UniProt P08246); experiment: Activity of DNA-bound elastase on NETs, chromogenic substrate MeO-Suc-AAPV-pNA; conditions: NETs from PMA-stimulated neutrophils, MeO-Suc-AAPV-CMK 100 μM, α1-PI 10 μM, aprotinin 10 μM (FIG. 1B legend)
# T1 construct: endogenous in cells
# T1 sequence (P08246 30-247 limits assumed): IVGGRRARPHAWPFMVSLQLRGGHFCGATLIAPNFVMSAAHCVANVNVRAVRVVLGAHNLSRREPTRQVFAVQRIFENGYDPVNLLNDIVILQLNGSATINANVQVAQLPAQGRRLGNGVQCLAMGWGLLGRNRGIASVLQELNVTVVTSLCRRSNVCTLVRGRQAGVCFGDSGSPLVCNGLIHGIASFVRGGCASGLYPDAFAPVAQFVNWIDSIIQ
# Experimental: FIGS. 1A-C represent Neutrophil Extracellular Traps (NETs) generated from neutrophils seeded onto a fibrin matrix: DNA and HNE activity of NETs are shown. Neutrophils isolated from human blood and seeded on wells of a 96-wells microtiter plate containing or not a fibrin matrix, were activated by 50 nM PMA in HBSS. After 4 hours incubation at 37° C. in a humidified 5% CO2 incubator, the plate was centrifuged at 3000 g for 5 min, the supernatant was collected and cells and NETs in the well stained with a 10 μg/ml solution of Hoechst 33342 a minor-groove DNA binder. Elastase activity bound to NETs was detected with the chromogenic substrate N-methoxysuccinyl-Ala-Ala-Pro-Val-p-nitroanilide. FIG. 1A represents fluorescence microscopy images (X20) of nuclei and extracellular DNA fibers stained with Hoechst. Scale bars: 20 μm. […] NETs: neutrophil extracellular traps generated in the absence of fibrin. […] C. […] Purified HNE was incubated (15 min) at different concentrations in buffer or plasma before activity measurements with 1.5 mM of the chromogenic substrate N-methoxysuccinyl-Ala-Ala-Pro-Val-p-nitroanilide.
# NETs were identified by (1) DNA staining with a 10 μg/ml solution of Hoechst 33342 and (2) measuring the activity of DNA-bound elastase.
# To detect elastase bound to NETs, the substrate MeO-Suc-AAPV-pNA (100 μl per well, 1.5 mM final concentration in HBSS) was incubated with NETs after two gentle washes with HBSS. DNA-bound HNE activity was detected in a multi-well plate counter at 37° C. by measuring the release of p-nitroaniline (pNA) at A405 nm.
# [2] = molecular target: T2, HNE-DNA complexes of fibrin-NETs lattice (Homo sapiens, UniProt P08246); experiment: Plasminogen activation by fibrin-bound tPA on fibrin-NETs matrices (plasmin formation)
# T2 construct: endogenous in cells
# T2 sequence (P08246 30-247 limits assumed): T1 sequence (P08246 30-247 limits assumed)
# Experimental: FIGS. 3A-D represent the decrease in tPA-mediated plasmin formation by NETs formed onto fibrin. Neutrophils isolated from human blood were seeded onto fibrin in a 96-wells microtitre plate and activated by 50 nM PMA in HBSS. After binding of tPA to fibrin, plasminogen at varying concentrations was added to the interlaced NETs-fibrin structure. FIG. 3A-B. Plasmin formation from plasminogen (Pg) at 50 nM (A) and 500 nM (B) was monitored by measuring the released of pNA the plasmin-selective chromogenic substrate at 0.75 mM. Plasmin formation on fibrin. ● Plasmin formation on fibrin-NETs. ▪ Plasmin formation on fibrin-NETs treated with the elastase inhibitor MeO-Suc-AAPV-CMK. FIG. 3 C. After plasminogen activation the wells were carefully washed and the amount of fibrin-bound plasmin detected by adding 0.75 mM of the plasmin-selective chromogenic substrate. Grey bars: plasmin bound to the fibrin-NETs surface. […]
# Fibrin-NETs matrices were achieved by activation with PMA of neutrophils seeded onto fibrin surfaces prepared as described above. […] Initial velocities of the reaction were calculated using an ad hoc computer program. • 2. […] HNE activity in samples collected in HBSS was measured with the chromogenic substrate MeO-Suc-AAPV-pNA (100 μl per well, 1.5 mM final concentration in HBSS) as indicated above. […]
# [3] = molecular target: T1, HNE-DNA complexes of NETs; experiment: Plasminogen fragmentation by NETs-bound elastase (SDS-PAGE, Western blot); conditions: plasminogen 1 μM; NETs pre-incubated with inhibitor
# Experimental: FIGS. 2A-C represent NETs-associated elastase digests plasminogen into fragments. Samples were analyzed by SDS-PAGE and Western blot using a specific sheep antibody directed against human plasminogen. FIG. 2A-B. Plasminogen fragmentation by NETs HNE•DNA complexes after 30 to 240 min (A) and 2 to 10 hours (B) of incubation. C. Western blot of purified plasminogen (Pg), plasmin (Pn) (left panel) and HNE-DNA-derived plasminogen fragments (middle panel). Plasminogen fragments produced by PMA stimulated neutrophils (middle panel) were not observed (right panel) in the presence of the elastase-specific inhibitor (EI) N-Methoxysuccinyl-Ala-Ala-Pro-Val-chloromethyl ketone.
# Fibrin-NETs matrices were achieved by activation with PMA of neutrophils seeded onto fibrin surfaces prepared as described above. The neutrophils were seeded onto the fibrin matrix at 200 000 cells per well and were stimulated with PMA after 1 h plating as indicated above. […] Initial velocities of the reaction were calculated using an ad hoc computer program. • 2. […] HNE activity in samples collected in HBSS was measured with the chromogenic substrate MeO-Suc-AAPV-pNA (100 μl per well, 1.5 mM final concentration in HBSS) as indicated above. […] Signal was detected using the ECL kit from Amersham (Arlington Heights, U.K.) and the Curix-60-AGFA for development. […]
effect on proteolytic activity of HNE-DNA complexes of NETs ([1]; listed as aprotinin),Substance,effect on proteolytic activity of HNE-DNA complexes of NETs [1],decrease of plasmin formed and remaining bound to untreated fibrin-NETs lattices compared with lattices in the presence of inhibitor ([2]; FIG. 3C),"plasmin formation / fibrinolytic activity at the fibrin-NET lattice ([2]; fibrin-NET lattice pre-incubated with inhibitor, tPA bound to fibrin)",effect on conversion of plasminogen into fragments by NETs [3]
–,N-(Methoxysuccinyl)-L-alanyl-L-alanyl-L-prolyl-L-valine chloromethylketone [MeO-Suc-AAPV-CMK],completely blocked; also recorded: completely inhibited,around 50%,restored to control values,abolished the conversion of plasminogen into fragments; also recorded: plasminogen fragments were absent
unable to modify,Aprotinin,without effect,–,–,unable to modify
